In ChEMBL document CHEMBL5604063, “ASAP - DENV-2 NS2B-NS3 protease fluorescence dose response” (2024) one finds IC50 data, which are given here for 28 compounds.

Assay [1] has as its target T1, Genome polyprotein (dengue virus type 2, UniProt P29990). The format is functional, Thailand/16681/1984.
Assay [2] addresses T1, Genome polyprotein. Type of assay: functional, Thailand/16681/1984. This is another data set of the same source.

Values joined by “and” are separate entries in the source; they are usually repeats but may differ in a detail not shown here. Identical values can stand only once. Some results are limits rather than exact numbers.

T1 sequence (P29990 1346-1475 limits assumed): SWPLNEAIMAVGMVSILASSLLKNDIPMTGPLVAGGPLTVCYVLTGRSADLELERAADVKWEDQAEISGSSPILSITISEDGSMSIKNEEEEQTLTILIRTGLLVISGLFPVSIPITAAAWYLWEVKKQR
T1 sequence (P29990 1476-2093 limits assumed): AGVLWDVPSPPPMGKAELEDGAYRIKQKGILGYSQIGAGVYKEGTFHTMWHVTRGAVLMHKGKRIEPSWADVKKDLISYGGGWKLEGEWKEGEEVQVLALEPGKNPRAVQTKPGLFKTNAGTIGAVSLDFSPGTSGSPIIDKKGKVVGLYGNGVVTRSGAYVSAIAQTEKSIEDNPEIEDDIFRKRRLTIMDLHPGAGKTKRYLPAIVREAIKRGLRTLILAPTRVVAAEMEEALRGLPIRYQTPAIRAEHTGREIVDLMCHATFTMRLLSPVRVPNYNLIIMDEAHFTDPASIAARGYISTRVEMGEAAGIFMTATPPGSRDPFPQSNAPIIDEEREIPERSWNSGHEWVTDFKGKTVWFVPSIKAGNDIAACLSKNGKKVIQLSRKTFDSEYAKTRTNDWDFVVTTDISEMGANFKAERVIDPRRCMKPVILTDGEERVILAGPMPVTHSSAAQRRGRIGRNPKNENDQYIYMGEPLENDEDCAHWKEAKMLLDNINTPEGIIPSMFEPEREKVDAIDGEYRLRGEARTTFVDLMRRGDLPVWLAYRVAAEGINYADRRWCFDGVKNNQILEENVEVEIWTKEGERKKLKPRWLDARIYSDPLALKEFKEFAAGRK

For orientation: IC50 means the concentration needed to halve the response being measured. Low values mean greater potency in that assay, high ones weaker potency in that assay. `NCc1cccc(NC(=O)c2cc(Cl)cc(CN3CCOCC3)c2)c1`: the half-inhibitory concentration (IC50) on Genome polyprotein [1] is greater than 99.5 µM; against Genome polyprotein [2] it was greater than 100 µM.
For the compound `O=C1NCc2c1cccc2C(=O)Nc1ccc2c(c1)CNC2`, the IC50 at Genome polyprotein [1] is greater than 99.5 µM; against Genome polyprotein [2], greater than 100 µM.
As for `O=C(Nc1ccc2c(c1)CNC2)c1c(Br)cc(Cl)c2[nH]ncc12`, the IC50 was greater than 99.5 µM against Genome polyprotein [1] and greater than 100 µM against Genome polyprotein [2].
In the case of `O=C(Nc1cc(Cl)cc(-c2ccn3c(C(=O)O)cnc3c2)c1)OCc1ccccc1`, the IC50 against Genome polyprotein [1] was greater than 99.5 µM; against Genome polyprotein [2] it was 13.6 µM.
As to `COc1cc(Cl)cc(C(=O)Nc2ccc3c(c2)CNC3)c1`, the IC50 was greater than 99.5 µM at Genome polyprotein [1] and greater than 100 µM against Genome polyprotein [2].
With `O=C(Nc1ccc2c(c1)CNC2)N1CCC[C@@H]1COCc1ccccc1`, the IC50 was greater than 99.5 µM against Genome polyprotein [1] and greater than 100 µM at Genome polyprotein [2].
As for `O=C(Nc1cc(Cl)cc(C(=O)Nc2ccc(-n3nn[nH]c3=O)cc2)c1)OCc1ccccc1`, the IC50 against Genome polyprotein [1] was 13.3 µM and 14.1 µM; against Genome polyprotein [2], 7.45 µM and 7.74 µM.
For the compound `O=C1Cc2cc(NC(=O)c3cc(Cl)cc(NC(=O)OCc4ccccc4)c3)ccc2N1`, the IC50 was greater than 99.5 µM against Genome polyprotein [1] and greater than 100 µM at Genome polyprotein [2].
In the case of `CS(=O)(=O)c1cc(CN)cc(NC(=O)c2cc(Cl)cc(NC(=O)OCc3ccccc3)c2)c1`, the IC50 is greater than 99.5 µM on Genome polyprotein [1] and greater than 100 µM at Genome polyprotein [2].
`Cc1cc(C)c([C@@H](CC(=O)Nc2cccc(CN)c2)NC(=O)OCc2ccccc2)cc1C`: the IC50 was 7.12 µM and 7.23 µM against Genome polyprotein [1]; 11.6 µM at Genome polyprotein [2].
Turning to `O=C(Nc1ccc2c(c1)CNC2)c1cc(Cl)ccc1OC1CCCC1`, the IC50 against Genome polyprotein [1] was greater than 99.5 µM; on Genome polyprotein [2], greater than 100 µM.
In the case of `Cc1c(C(=O)Nc2cc(-c3cccnc3)ccn2)cc(-c2ccccc2)n1C`, the IC50 at Genome polyprotein [1] was greater than 99.5 µM; at Genome polyprotein [2], greater than 100 µM.
Turning to `O=C(Nc1cc(-c2cccnc2)ccn1)c1cc(C2CC2)[nH]c(=O)c1`, the IC50 was greater than 99.5 µM against Genome polyprotein [1] and greater than 100 µM against Genome polyprotein [2].
In the case of `CCc1onc(-c2ccc(Br)cc2)c1C(=O)Nc1cccc(CN)c1`, the values for the 50% inhibitory concentration (IC50) against Genome polyprotein [1] and against Genome polyprotein [2] were greater than 99.5 µM and greater than 100 µM, respectively.
As for `CC1(C)C(=O)N[C@H]2CCCN(C(=O)Nc3ccc4c(c3)CNC4)[C@H]21`, the IC50 on Genome polyprotein [1] is greater than 99.5 µM; at Genome polyprotein [2], greater than 100 µM.
For `CCc1cc(C(=O)Nc2cccc(-c3nnn[nH]3)c2)sc1C`, the IC50 is greater than 99.5 µM at Genome polyprotein [1] and greater than 100 µM against Genome polyprotein [2].
In the case of `Cc1cc(CC(=O)O)ccc1Cc1c[nH]c2ccc(Cl)cc12`, the IC50 is greater than 99.5 µM against Genome polyprotein [1] and greater than 100 µM against Genome polyprotein [2].
For the compound `O=C(Nc1ccc2c(c1)CNCCO2)c1cc(Cl)cc2[nH]ncc12`, the IC50 at Genome polyprotein [1] is greater than 99.5 µM; against Genome polyprotein [2] it was greater than 100 µM.
In the case of `O=C1Cc2c(cc(Br)cc2C(=O)Nc2ccc3c(c2)CNC3)N1`, the IC50 against Genome polyprotein [1] was greater than 99.5 µM; against Genome polyprotein [2], greater than 100 µM.
For the compound `O=C(Nc1ccc2c(c1)CNC2)C1CCCCC1`, the IC50 on Genome polyprotein [1] is greater than 99.5 µM; at Genome polyprotein [2] it was greater than 100 µM.
With `NCc1ccc2nc(-c3cc(Cl)cc(NC(=O)OCc4ccccc4)c3)c(CCCO)cc2c1`, the results for the IC50 at Genome polyprotein [1] and against Genome polyprotein [2] were 89.3 µM and greater than 100 µM, respectively.
For `CNC(=O)[C@H](Nc1cccc(C2(C(=O)O)CCC2)c1)c1cc(Cl)cc(C2CC2)c1`, the IC50 was greater than 99.5 µM on Genome polyprotein [1] and greater than 100 µM on Genome polyprotein [2].
As to `O=C(Nc1cc(Cl)cc([C@H](Nc2cccc(-c3nn[nH]n3)c2)C(=O)NC[C@H]2CCCO2)c1)OCc1ccccc1`, the IC50 was 33.7 µM on Genome polyprotein [1] and 17.6 µM at Genome polyprotein [2].
Consider `O=C(Nc1ccc2c(c1)CN[C@H]2C1CC1)c1cc(F)cc2[nH]ncc12`, for which the IC50 was 13.5 µM against Genome polyprotein [1]; 15.7 µM and 16.1 µM on Genome polyprotein [2].
Consider `N#C[C@H](Nc1ccc2c(c1)CNC2)c1cccc2c1CCNC2=O`, for which the values for the IC50 against Genome polyprotein [1] and against Genome polyprotein [2] were greater than 99.5 µM and greater than 100 µM, respectively.
With `NCc1cccc(NC(=O)c2cc(C(F)(F)F)ccc2SC2CCCC2)c1`, the IC50 at Genome polyprotein [1] is greater than 99.5 µM; against Genome polyprotein [2] it was greater than 100 µM.
For `O=C1Cc2c(cccc2C(=O)Nc2ccc(Cl)c(CO)n2)N1`, the IC50 on Genome polyprotein [1] was greater than 99.5 µM; at Genome polyprotein [2], greater than 100 µM.
As for `O=C(Nc1cc(Cl)cc(/C=C/c2cccc(-n3nn[nH]c3=O)c2)c1)OCc1ccccc1`, the half-inhibitory concentration (IC50) against Genome polyprotein [1] is 8.63 µM and 8.5 µM; at Genome polyprotein [2], 11.5 µM and 8.65 µM.
